Values of other authors as cited in US7666442B2 (Tracie Martyn International, LLC, priority 2004, dated 2010).
Each block holds one compound with its values, some of them ahead of it.

Legend:
[1] = using only natural ingredients (botanicals, antioxidants, coffe oil and microfine zinc oxide)
[2] = orally at dosages above 500 mg/kg body weight in animal studies

Structure (SMILES): COc1ccc(C=CC(=O)OCCC(C)C)cc1 [isoamyl-p-methoxycinnamate]
- spf [1]: greater than 30

- Water solubility: water-soluble
Structure (SMILES): Cc1ncc(CO)c(CN)c1O [Pyridoxamine, 4-aminomethyl-5-hydroxy-6-methyl-3-pyridinemethanol]

Structure (SMILES): NCCC(=O)N[C@@H](Cc1cnc[nH]1)C(=O)O [Carnosine, beta-alanyl-L-histidine]
- Safety after oral administration [2]: safe
